Results: article PMC10823475, “Design, Synthesis, and Evaluation of Inhibitors of Hedgehog Acyltransferase” (Journal of Medicinal Chemistry, 2024)

Key:
purified HHAT = target: T1, purified HHAT (Homo sapiens, UniProt Q5VTY9); test: Acyl-cLIP assay, inhibition of purified HHAT; format: biochemical; details: for IC50: purified HHAT, read-out: Acyl-cLIP Assay IC50 (CI95)
T1 construct: made in house
Method: The inhibitory potency of all 50 compounds against purified HHAT was quantified using the acylation-coupled lipophilic induction of polarization (acyl-cLIP) assay recently developed in our lab, a universally applicable assay for high-throughput analysis of protein–lipid transferases and hydrolases.[31],[40] In brief, in this assay a fluorescently labeled peptide based on the N-terminal sequence of SHH is incubated with N-dodecyl β-D-maltoside (DDM) solubilized purified HHAT, palmitoyl-CoA, and HHAT inhibitors. Binding of the lipidated peptide product to the DDM micelle results in decreased tumbling rate and an increase in polarization of fluorescence emission, enabling facile quantification of HHAT activity. Initially, % HHAT inhibition was determined at 50 μM and 25 μM for all analogues. […] HHAT is a 12-pass TM protein,[14] and we considered whether lipophilicity might bias inhibition; pIC50 values were compared to calculated log D, which indicated no significant correlation (SI, Table S1 and Figure S2). We concluded that lipophilicity is not a general driver of HHAT inhibitory potency.
The acyl-cLIP assay has been described previously.[40] Briefly, SHH-FAM peptide was diluted in buffer A (100 mM MES, 20 mM NaCl, 1 mM DTT, 1 mM TCEP, 0.1% BSA, pH 6.5) to a concentration of 2 μM. Palmitoyl-CoA (Sigma-Aldrich) was diluted in buffer A to 7.5 μM and recombinant HHAT (obtained by following the published protocol[14]) in buffer B (20 mM HEPES, 350 mM NaCl, 1% DDM, 5% glycerol, pH 7.3) diluted to 44 μg/mL. 1.5 μL of a 50 mM inhibitor DMSO stock was diluted with 18.5 μL of DMSO and further serial diluted (1:1). For each condition, 6 μL of the HHAT working stock and […] of the SHH-peptide working stock were mixed with 3 μL of the corresponding inhibitor concentration or DMSO vehicle. Twelve μL/well of this mixture was split into four wells of a black 384 well plate. To start the reaction, 8 μL of the Pal-CoA working stock were added to each well and fluorescence anisotropy and the total fluorescence recorded on an EnVision Xcite 2104 (PerkinElmer) over 30 min (emission filter 1 = FITC FP P-pol 535; emission filter 2 = FITC S-pol 535; excitation filter: FITC FP 480; measurement height = 6.5 mm; detector gain = 0; high concentration gain). Initial rate constants were determined by linear regression and normalized to DMSO control and samples with buffer B instead of HHAT. IC50 values were extracted from the corresponding dose response curves using a “sigmoidal dose response (variable slope)” model in GraphPad Prism 5 (GraphPad Software, Inc.).

[1] = MTS assay, cytotoxicity (72 h); format: cell-based; details: human, HEK293a SHH+ cells, 72 h; for CC50 at 72 h: read-out: MTS Assay (HEK293a SHH+) CC50 (CI95)
Method: The survival of HEK293a SHH^+ cells is independent of HH signaling,[35] therefore, the cytotoxicity of analogues was tested using the MTS assay to investigate off-target toxicity. In this assay, HEK293a SHH^+ cells were treated with DMSO vehicle or varying concentrations of analogues for 72 h. Subsequently, a mixture of 1-methoxy phenazine methosulfate (PMS) and [3-(4,5-dimethylthiazol-2-yl)-5-(3-carboxymethoxyphenyl)-2-(4-sulfophenyl)-2H-tetrazolium] (MTS) was added to enable quantification of cell number via colorimetric analysis. […] Compounds 3, 17, 19, 32, 34, 38, and 45, which all contain a 2-((2-methylbutyl)amino)acetyl, were toxic to HEK293a SHH^+ cells, as were ureas 26, 40, and 41.
HEK293a SHH^+ cells were plated at 5000 cells/well in a 96-well plate (Nunc) using a volume of 50 μL/well and cultured for 24 h as described. Cells were treated with 100 μL/well of either DMSO vehicle, Puromycin (2 μg/mL), or stated analogues (0.14–100 μM final) in DMEM supplemented with 10% FBS. After 72 h, 20 μL/well of a mixture of 1-methoxy phenazine methosulfate (PMS) and [3-(4,5-dimethylthiazol-2-yl)-5-(3-carboxymethoxyphenyl)-2-(4-sulfophenyl)-2H-tetrazolium] (MTS) at a ratio of MTS/PMS = 2/0.92 mg/mL in PBS was added and the plates were incubated for 3 h at 37 °C. Subsequently, the absorption at 490 nm was recorded using an EnVision Xcite 2104 (PerkinElmer), and the response was normalized to vehicle control and Puromycin treated samples. Dose response curves were fitted to a “sigmoidal dose response (variable slope)” model using GraphPad Prism 5 (GraphPad Software, Inc.).

T1 sequence (Q5VTY9 whole entry): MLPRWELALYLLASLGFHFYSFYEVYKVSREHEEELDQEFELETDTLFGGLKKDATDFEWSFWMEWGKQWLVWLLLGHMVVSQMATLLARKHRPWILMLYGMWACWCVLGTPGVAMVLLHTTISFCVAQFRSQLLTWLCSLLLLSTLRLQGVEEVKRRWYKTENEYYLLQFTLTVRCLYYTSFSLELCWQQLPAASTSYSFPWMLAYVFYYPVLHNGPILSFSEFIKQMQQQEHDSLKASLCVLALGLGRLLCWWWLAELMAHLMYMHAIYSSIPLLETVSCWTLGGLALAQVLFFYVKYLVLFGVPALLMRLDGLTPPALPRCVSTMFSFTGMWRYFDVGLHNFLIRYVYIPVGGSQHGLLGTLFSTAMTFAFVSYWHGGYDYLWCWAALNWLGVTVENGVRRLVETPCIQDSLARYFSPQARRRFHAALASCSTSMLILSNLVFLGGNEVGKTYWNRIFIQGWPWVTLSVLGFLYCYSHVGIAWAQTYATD

| SMILES | inhibition at 25 µM (purified HHAT) | inhibition at 50 µM (purified HHAT) | IC50 (purified HHAT) | viability at 72 h, 12.5 µM [1] | viability at 72 h, 25 µM [1] | HHAT inhibition in the acyl-cLIP assay (purified HHAT) | CC50 at 72 h [1] |
| --- | --- | --- | --- | --- | --- | --- | --- |
| O=C([C@@H]1CCCN1)N1CCc2sccc2C1c1ccccc1 (mixture of isomers) [Compound 9, (S)-4-Phenyl-5-prolyl-4,5,6,7-tetrahydrothieno[3,2-c]pyridine] | 4 ± 5% | 30 ± 2% | > 25 µM | 90 ± 5% | 81 ± 5% | – | – |
| CC(C)CNCC(=O)N1CCc2ccccc2C1c1ccccc1 (stereo in doubt) [Compound 42, (S)-2-((2-Methylpropyl)amino)-1-(1-phenyl-3,4-dihydroisoquinolin-2(1H)-yl)ethan-1-one] | 6 ± 2% | 7 ± 2% | > 100 µM | 92 ± 4% | 91 ± 2% | no inhibitory activity | > 100 µM |
| Clc1ccc(OCC2NCCc3sccc32)cc1 (stereo not drawn) [Compound 1] | 16 ± 5% | 2 ± 2% | > 25 µM | 95 ± 3% | 84 ± 4% | inactive | – |
| c1ccc(C2NCCc3sccc32)cc1 (stereo not drawn) [Compound 4] | 5 ± 3% | -16 ± 16% | > 25 µM | 90 ± 2% | 84 ± 3% | inactive | – |
| CC(=S)N1CCc2sccc2C1c1ccccc1 (stereo not drawn) [Compound 6] | 44 ± 7% | 38 ± 2% | > 25 µM | 27 ± 2% | 29 ± 5% | – | – |
| C[C@H](N)C(=O)N1CCc2sccc2C1c1ccccc1 (stereo partly drawn) [Compound 7, (2S)-2-Amino-1-(4-phenyl-6,7-dihydrothieno[3,2-c]pyridin-5(4H)-yl)propan-1-one] | 42 ± 1% | 67 ± 3% | – | 99 ± 3% | 74 ± 4% | – | – |
| CC(C)[C@H](N)C(=O)N1CCc2sccc2C1c1ccccc1 (stereo partly drawn) [Compound 8, (2S)-2-Amino-3-methyl-1-(4-phenyl-6,7-dihydrothieno[3,2-c]pyridin-5(4H)-yl)butan-1-one] | 9 ± 4% | 7 ± 11% | > 25 µM | 92 ± 3% | 92 ± 3% | – | – |
| N[C@H](C(=O)N1CCc2sccc2C1c1ccccc1)c1ccccc1 (stereo partly drawn) [Compound 10, (2S)-2-Amino-2-phenyl-1-(4-phenyl-6,7-dihydrothieno[3,2-c]pyridin-5(4H)-yl)ethan-1-one] | 18 ± 1% | 21 ± 7% | > 25 µM | 74 ± 3% | 43 ± 2% | – | – |
| N[C@@H](Cc1ccccc1)C(=O)N1CCc2sccc2C1c1ccccc1 (stereo partly drawn) [Compound 11, (2S)-2-Amino-3-phenyl-1-(4-phenyl-6,7-dihydrothieno[3,2-c]pyridin-5(4H)-yl)propan-1-one] | -6 ± 3% | -2 ± 6% | > 25 µM | 46 ± 2% | 38 ± 1% | – | – |
| CCCCCCCC(=O)N1CCc2sccc2C1c1ccccc1 (stereo not drawn) [Compound 13, 1-(4-Phenyl-6,7-dihydrothieno[3,2-c]pyridin-5(4H)-yl)octan-1-one] | 6 ± 6% | 4 ± 6% | > 25 µM | 47 ± 1% | 35 ± 2% | loss of activity | – |
| Cc1cccc(C2NCCc3sccc32)c1 (stereo not drawn) [Compound 14] | 5 ± 3% | -16 ± 16% | > 25 µM | 72 ± 3% | 74 ± 3% | inactive | – |
| C=CCN1CCc2sccc2C1c1cccc(C)c1 (stereo not drawn) [Compound 15] | -1 ± 5% | -5 ± 9% | > 25 µM | 81 ± 2% | 74 ± 2% | no inhibitory effect | – |
| Cc1cccc(C2NCCc3sccc32)n1 (stereo not drawn) [Compound 20] | 9 ± 10% | -2 ± 19% | > 25 µM | 82 ± 2% | 68 ± 3% | inactive | – |
| CC(=O)N1CCc2sccc2[C@H]1c1cccc(C)n1 [Compound 27, (S)-1-(4-(6-Methylpyridin-2-yl)-6,7-dihydrothieno[3,2-c]pyridin-5(4H)-yl)ethan-1-one] | 4 ± 7% | 27 ± 6% | > 100 µM | 90 ± 4% | 89 ± 3% | no inhibitory activity | > 100 µM |
| CC(=O)N1CCc2sccc2C1c1ccccc1O (stereo not drawn) [Compound 33] | 24 ± 1% | 31 ± 1% | > 25 µM | 88 ± 3% | 87 ± 5% | – | > 100 µM |
| CC(=O)N1CCc2sccc2C1C1CCCCC1 (stereo not drawn) [Compound 35] | 6 ± 7% | 8 ± 7% | > 25 µM | 54 ± 2% | 59 ± 3% | loss of activity | – |
| CCC(C)CNCC(=O)N1CCc2sccc2C1C1CCCCC1 (stereo not drawn) [Compound 36, 1-(4-Cyclohexyl-6,7-dihydrothieno[3,2-c]pyridin-5(4H)-yl)-2-((2-methylbutyl)amino)ethan-1-one] | 24 ± 1% | 24 ± 14% | > 25 µM | 47 ± 4% | 25 ± 1% | loss of activity | – |
| CCC(C)CNCC(=O)N1CCc2cc(OC)c(OC)cc2C1c1ccccc1 (stereo not drawn) [Compound 44, 1-(6,7-Dimethoxy-1-phenyl-3,4-dihydroisoquinolin-2(1H)-yl)-2-((2-methylbutyl)amino)ethan-1-one] | 7 ± 3% | 8 ± 2% | > 100 µM | 96 ± 3% | 95 ± 5% | complete loss of HHAT inhibition | > 100 µM |
| C=CC(=O)N1CCn2cccc2C1c1ccccc1 (stereo not drawn) [Compound 46, 1-(1-Phenyl-3,4-dihydropyrrolo[1,2-a]pyrazin-2(1H)-yl)prop-2-en-1-one] | 7 ± 1% | 12 ± 1% | > 25 µM | 96 ± 2% | 97 ± 2% | loss of potency | > 100 µM |
| CC(=O)N1CCCCC1c1ccccc1 (stereo not drawn) [Compound 47, 1-(2-Phenylpiperidin-1-yl)ethan-1-one] | -14 ± 2% | -3 ± 2% | > 25 µM | 95 ± 2% | 93 ± 5% | – | > 50 µM |
| C=CC(=O)N1CCCCC1c1ccccc1 (stereo not drawn) [Compound 48, 1-(2-Phenylpiperidin-1-yl)prop-2-en-1-one] | -2 ± 3% | -3 ± 2% | > 25 µM | 93 ± 2% | 90 ± 2% | – | > 100 µM |
